Where a name gives a salt, the structure may show the parent alone.
Columns and labels:
[1] = Solubility in aqueous buffer; type: physicochemical
Sa-SrtA = Sa-SrtA (Staphylococcus aureus, UniProt Q2FV99); conditions: read-out: Sa-SrtA IC50; values taken from reference; cited from earlier work
SrtA = SrtA (Staphylococcus aureus, UniProt Q2FV99); conditions: read-out: SrtA IC50; cited from earlier work
S. aureus infections = conditions: dosed at 20 (DMMA) and 40 (triazolothiadiazole) mg of compound per kg of animal; cited from earlier work

Sequence of SrtA (Q2FV99 60-206): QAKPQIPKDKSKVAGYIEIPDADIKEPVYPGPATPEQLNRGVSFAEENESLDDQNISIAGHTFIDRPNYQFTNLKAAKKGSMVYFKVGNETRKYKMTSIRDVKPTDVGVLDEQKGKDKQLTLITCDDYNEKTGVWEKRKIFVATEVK
Sequence of Sa-SrtA (Q2FV99 60-206): as above

| Compound | solubility in aqueous solvent ([1]; aqueous solvent) | IC50 (Sa-SrtA) [µM] | IC50 (SrtA) [µM] | efficacy in treating potentially lethal S. aureus infections in animal models (S. aureus infections) | solubility ([1]; aqueous buffer) |
| --- | --- | --- | --- | --- | --- |
| CCOc1c(S)cnn(-c2ccccc2)c1=O [2-10] | poorly soluble | 13 ± 1 | – | – | – |
| O=S(=O)([O-])c1ccccc1-c1nn2c(-c3ccncc3)nnc2s1.[Na+] [triazolothiadiazol, 3-(4-pyridinyl)-6-(2-sodiumsulfonatephenyl)[1,2,4]triazolo[3,4-b][1,3,4]thiadiazole] | – | – | 9.3 | efficacious | – |
| COc1ccc(/C(C#N)=C/c2cc(OC)ccc2OC)cc1 [DMMA, (Z)-3-(2,5-dimethoxyphenyl)-2-(4-methoxyphenyl) acrylonitrile] | – | – | 9.2 | efficacious | – |
| CCOc1c(S)cnn(-c2ccccc2)c1=O [2-salt, 5-ethoxy-6-oxo-1-phenyl-1,6-dihydropyridazine-4-thiolate] | – | – | – | – | up to 75 mM |
